From patent US11053204B2, “Pyrimidinyloxy benzene derivatives as herbicides” (FMC Corporation, priority 2015, dated 2021)

Assays:
Assay type in all cases: in vivo
soybean (Glycine max) = experiment: Test C postemergence, plant response rating; conditions: for Soybean plant response rating: scale 0 to 100 (0 no effect, 100 complete control)
Outline: (§1)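 After sowing in loam–sand blend or silt loam, pots were sprayed preemergence; separately grown 1- to 4-leaf plants were sprayed postemergence. Following 13 to 15 d under greenhouse conditions, injury was rated visually on a 0 to 100 scale.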

[1] = tested on: morningglory (Ipomoea coccinea); experiment: Test C postemergence, plant response rating; conditions: for Morningglory plant response rating: scale 0 to 100 (0 no effect, 100 complete control)
Outline: as §1

kochia (Kochia scoparia) [2] = experiment: Test C postemergence, plant response rating; conditions: for Kochia plant response rating: scale 0 to 100 (0 no effect, 100 complete control)
Outline: as §1

corn (Zea mays) = experiment: Test C postemergence, plant response rating; conditions: for Corn plant response rating: scale 0 to 100 (0 no effect, 100 complete control)
Outline: as §1

[3] = tested on: wheat (winter wheat, Triticum aestivum); experiment: Test C postemergence, plant response rating
Outline: as §1

[4] = tested on: lambsquarters (Chenopodium album); experiment: Test C postemergence, plant response rating; conditions: for Lambsquarters plant response rating: scale 0 to 100 (0 no effect, 100 complete control)
Outline: as §1

[5] = tested on: oilseed rape (Brassica napus); experiment: Test C postemergence, plant response rating; conditions: for Oilseed Rape plant response rating: scale 0 to 100 (0 no effect, 100 complete control)
Outline: as §1

[6] = tested on: nutsedge, yellow (yellow nutsedge, Cyperus esculentus); experiment: Test C postemergence, plant response rating; conditions: for Nutsedge, Yellow plant response rating: scale 0 to 100 (0 no effect, 100 complete control)
Outline: as §1

[7] = tested on: crabgrass, large (large crabgrass, Digitaria sanguinalis); experiment: Test C postemergence, plant response rating; conditions: for Crabgrass, Large plant response rating: scale 0 to 100 (0 no effect, 100 complete control)
Outline: as §1

[8] = tested on: blackgrass (Alopecurus myosuroides); experiment: Test C postemergence, plant response rating; conditions: for Plant response rating, Blackgrass: scale 0 to 100; for Blackgrass plant response rating: scale 0 to 100 (0 no effect, 100 complete control)
Outline: as §1

[9] = tested on: barnyardgrass (Echinochloa crus-galli); experiment: Test C postemergence, plant response rating; conditions: for Plant response rating, Barnyardgrass: scale 0 to 100; for Barnyardgrass plant response rating: scale 0 to 100 (0 no effect, 100 complete control)
Outline: as §1

[10] = tested on: foxtail, giant (giant foxtail, Setaria faberii); experiment: Test C postemergence, plant response rating; conditions: for Foxtail, Giant plant response rating: scale 0 to 100 (0 no effect, 100 complete control)
Outline: as §1

[11] = tested on: ryegrass, Italian (Italian ryegrass, Lolium multiflorum); experiment: Test C postemergence, plant response rating; conditions: for Ryegrass, Italian plant response rating: scale 0 to 100 (0 no effect, 100 complete control)
Outline: as §1

[12] = tested on: chickweed (common chickweed, Stellaria media); experiment: Test C postemergence, plant response rating; conditions: for Chickweed plant response rating: scale 0 to 100 (0 no effect, 100 complete control)
Outline: as §1

[13] = tested on: oat, wild (wild oat Avena fatua); experiment: Test C postemergence, plant response rating; conditions: for Oat, Wild plant response rating: scale 0 to 100 (0 no effect, 100 complete control)
Outline: as §1

kochia (Kochia scoparia) [14] = experiment: Test A preemergence, visual injury rating
Outline: (§2)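 Compounds in non-phytotoxic solvent with surfactant applied as soil spray preemergence, or postemergence to plants 2-10 cm at one- to two-leaf stage, in loam/sand. After approximately 10 days in greenhouse, injury rated visually versus untreated controls, 0 (no effect) to 100 (complete control).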

[15] = tested on: barnyardgrass (Echinochloa crus-galli); experiment: Test A preemergence, visual injury rating
Outline: as §2

[16] = 31 g ai/ha, 0 to 100 scale, 0 no effect, 100 complete control
[17] = 125 g ai/ha, 0 to 100 scale (0 no effect, 100 complete control)

SMILES: O=C(CCCCC(F)(F)F)c1c(Br)cccc1Oc1ncc(Cl)cn1 [Compound 82]
- Plant response rating, Soybean (soybean (Glycine max); 16 g ai/ha, scale of 0 to 100): 25
- Plant response rating, Soybean (soybean (Glycine max); 31 g ai/ha, scale 0 to 100): 60
- Soybean plant response rating (soybean (Glycine max); 62 g ai/ha): 35
- Soybean plant response rating (soybean (Glycine max); 125 g ai/ha): 40
- Plant response rating, Morningglory ([1]; 16 g ai/ha, scale of 0 to 100): 25
- Plant response rating, Morningglory ([1]; 31 g ai/ha, scale 0 to 100): 40
- Morningglory plant response rating ([1]; 62 g ai/ha): 30
- Morningglory plant response rating ([1]; 125 g ai/ha): 75
- Plant response rating, Kochia (kochia (Kochia scoparia) [2]; 16 g ai/ha, scale of 0 to 100): 80
- Plant response rating, Kochia (kochia (Kochia scoparia) [2]; 31 g ai/ha, scale 0 to 100): 95
- Kochia plant response rating (kochia (Kochia scoparia) [2]; 62 g ai/ha): 95
- Kochia plant response rating (kochia (Kochia scoparia) [2]; 125 g ai/ha): 95
- Plant response rating, Corn (corn (Zea mays); 16 g ai/ha, scale of 0 to 100): 20
- Plant response rating, Corn (corn (Zea mays); 31 g ai/ha, scale 0 to 100): 20
- Corn plant response rating (corn (Zea mays); 62 g ai/ha): 25
- Corn plant response rating (corn (Zea mays); 125 g ai/ha): 25
- Plant response rating, Wheat ([3]; 16 g ai/ha, scale of 0 to 100): 5
- Plant response rating, Wheat ([3]; 31 g ai/ha, scale 0 to 100): 10
- Wheat plant response rating ([3]; 125 g ai/ha, scale 0 to 100 (0 no effect, 100 complete control)): 30
- Plant response rating, Lambsquarters ([4]; 16 g ai/ha, scale of 0 to 100): 70
- Plant response rating, Lambsquarters ([4]; 31 g ai/ha, scale 0 to 100): 75
- Lambsquarters plant response rating ([4]; 62 g ai/ha): 85
- Lambsquarters plant response rating ([4]; 125 g ai/ha): 90
- Plant response rating, Oilseed Rape ([5]; 16 g ai/ha, scale of 0 to 100): 70
- Plant response rating, Oilseed Rape ([5]; 31 g ai/ha, scale 0 to 100): 95
- Oilseed Rape plant response rating ([5]; 62 g ai/ha): 95
- Oilseed Rape plant response rating ([5]; 125 g ai/ha): 95
- Plant response rating, Nutsedge, Yellow ([6]; 16 g ai/ha, scale of 0 to 100): 10
- Plant response rating, Nutsedge, Yellow ([6]; 31 g ai/ha, scale 0 to 100): 10
- Nutsedge, Yellow plant response rating ([6]; 62 g ai/ha): 20
- Nutsedge, Yellow plant response rating ([6]; 125 g ai/ha): 10
- Plant response rating, Crabgrass, Large ([7]; 16 g ai/ha, scale of 0 to 100): 10
- Plant response rating, Crabgrass, Large ([7]; 31 g ai/ha, scale 0 to 100): 30
- Crabgrass, Large plant response rating ([7]; 62 g ai/ha): 30
- Crabgrass, Large plant response rating ([7]; 125 g ai/ha): 20
- Plant response rating, Blackgrass ([8]; 16 g ai/ha): 30
- Plant response rating, Blackgrass ([8]; 31 g ai/ha): 35
- Blackgrass plant response rating ([8]; 62 g ai/ha): 40
- Blackgrass plant response rating ([8]; 125 g ai/ha): 45
- Plant response rating, Barnyardgrass ([9]; 16 g ai/ha): 10
- Plant response rating, Barnyardgrass ([9]; 31 g ai/ha): 10
- Barnyardgrass plant response rating ([9]; 62 g ai/ha): 10
- Barnyardgrass plant response rating ([9]; 125 g ai/ha): 60
- Plant response rating, Foxtail, Giant ([10]; 16 g ai/ha, scale of 0 to 100): 10
- Plant response rating, Foxtail, Giant ([10]; 31 g ai/ha, scale 0 to 100): 10
- Foxtail, Giant plant response rating ([10]; 62 g ai/ha): 10
- Foxtail, Giant plant response rating ([10]; 125 g ai/ha): 20
- Plant response rating, Ryegrass, Italian ([11]; 16 g ai/ha, scale of 0 to 100): 5
- Plant response rating, Ryegrass, Italian ([11]; 31 g ai/ha, scale 0 to 100): 15
- Ryegrass, Italian plant response rating ([11]; 62 g ai/ha): 20
- Ryegrass, Italian plant response rating ([11]; 125 g ai/ha): 25
- Plant response rating, Chickweed ([12]; 16 g ai/ha, scale of 0 to 100): 55
- Plant response rating, Chickweed ([12]; 31 g ai/ha, scale 0 to 100): 85
- Chickweed plant response rating ([12]; 62 g ai/ha): 90
- Chickweed plant response rating ([12]; 125 g ai/ha): 90
- Plant response rating, Oat, Wild ([13]; 16 g ai/ha, scale of 0 to 100): 25
- Plant response rating, Oat, Wild ([13]; 31 g ai/ha, scale 0 to 100): 40
- Oat, Wild plant response rating ([13]; 62 g ai/ha): 40
- Oat, Wild plant response rating ([13]; 125 g ai/ha): 50
- Plant response rating, Kochia (kochia (Kochia scoparia) [14]; [16]): 70
- Kochia plant response rating (kochia (Kochia scoparia) [14]; [17]): 80
- Plant response rating, Barnyardgrass [15, 16]: 50
- Barnyardgrass plant response rating [15, 17]: 100
